# According to US9491946B2, “Ag loaded silica nanoparticle/nanogel formulation, methods of making, and methods of use” (University of Central Florida Research Foundation, Inc., priority 2011, dated 2016):
# Legend:
# S. aureus, ATTC 25923 = type: cell-based, Staphylococcus aureus; settings: equivalent metallic Ag concentration
# Protocol: (§1) Antibacterial properties of AgSiNP200 and AgSiNP50 were evaluated against Gram-positive, Bacillus subtilis (B. subtilis, ATCC 9372) and Staphylococcus aureus (S. aureus, ATTC 25923) and a Gram-negative, Escherichia coli (E. coli, ATCC 35218) organism. […] All the bacteria were obtained from the UCF Department of Molecular Biology and Microbiology Preparatory Laboratories) by Microbiology Department, University of Central Florida, Orlando. All the antibacterial assays were done using Mueller Hinton II medium (Fulka Analytical, USA).
# (§2) The bacterial inhibition studies for the AgSiNP200 and AgSiNP50 were done using a method as described by Rastogi et al.^41. The procedure is briefly described below. Different concentrations of AgSiNP200 (metallic silver concentrations of 63.5 μg/ml, 38.1 μg/ml, 19.05 μg/ml, 9.53 μg/ml, 4.77 μg/ml, 2.68 μg/ml, 1.34 μg/ml, 953 ng/ml, 477 ng/ml, 95.3 ng/ml and 47.7 ng/ml) and AgSiNP50 (metallic silver concentrations of 30.24 μg/ml, 20.16 μg/ml, 10.08 μg/ml, 5.04 μg/ml, 2.52 μg/ml, 1.26 μg/ml, 630 ng/ml and 63 ng/ml) were prepared in sterile Mueller Hinton II broth in sterile tubes. To achieve uniform growth for this comparative study, all the tubes contained same amount of broth. We have used 0.85% of sterile saline to make up the volume to 0.9 ml in each tube. In the next step, 0.1 ml of 10^6 CFU/ml of bacteria culture was added to each tube. […]
# B. subtilis, ATCC 9372 [1] = test: growth inhibition assay by turbidity (OD 600 nm), Mueller Hinton II broth; type: cell-based, Bacillus subtilis; settings: equivalent metallic Ag concentration
# Protocol: as §1, §2
# E. coli, ATCC 35218 [2] = type: cell-based, Escherichia coli; settings: equivalent metallic Ag concentration
# Protocol: as §1, §2
# E. coli, ATCC 35218 [3] = test: bacterial growth inhibition in LB broth using turbidity (Example 2); type: cell-based, Escherichia coli; settings: 24 hours, 37° C., OD 600 nm
# Protocol: (§3) Antibacterial properties of C—S CuSiNP and AgSiNG materials were evaluated against a gram positive Bacillus subtilis (B. subtilis, ATCC 9372) and a gram negative Escherichia coli (E. coli, ATCC 35218) organism. For all antibacterial assays, bacterial concentration of 10^5 cells/mL was considered. Copper sulfate with same metallic copper concentration was used as positive controls and silica nanoparticle (without Cu loading) was used as negative control.
# (§4) Two sets of different concentrations of C—S CuSiNP were made in LB broth (0.49, 1.2, 2.4, 4.9, 7.2 and 9.8 ppm copper concentration) to a final volume of 10 mL. 250 μL (10^5 cells/mL) of E. coli and B. subtilis were added to set 1 and 2 respectively. Silica nanoparticle was used as negative control and copper sulfate with equivalent amount of copper was used as positive control. […]
# (§5) The growth inhibitory effects of C—S CuSiNP and AgSiNG against E. coli and B. subtilis were studied in liquid media (FIG. 2.3 and FIG. 2.4). Bacterial growth with different concentrations of C—S CuSiNP and AgSiNG (0.49 to 9.8 μg mL^−1) was monitored after 24 hours of incubation at 37° C. by measuring the optical density at 600 nm using Teysche800 spectrophotometer. Since the turbidity of silica based material can interfere with the optical density reading, the background measurement was subtracted to calculate the final reading.
# B. subtilis, ATCC 9372 [4] = test: as above; type: cell-based, Bacillus subtilis; settings: 24 hours, 37° C., OD 600 nm
# Protocol: as §3, §4, §5
compound,measurement,setting,value
"O=[N+]([O-])[O-].[Ag+] [Ag nitrate, silver nitrate]",growth inhibition result in words (controls versus AgSiNP nanoformulations),"S. aureus, ATTC 25923",no significant difference in growth inhibition results
same,growth inhibition result in words (controls versus AgSiNP nanoformulations),"B. subtilis, ATCC 9372 [1]",no significant difference in growth inhibition results
same,growth inhibition result in words (controls versus AgSiNP nanoformulations),"E. coli, ATCC 35218 [2]",no significant difference in growth inhibition results
same,silver concentration at which growth inhibition can be seen,"E. coli, ATCC 35218 [3]",2.4 ppm
same,silver concentration at which growth inhibition can be seen,"B. subtilis, ATCC 9372 [4]",2.4 ppm
